Assay [1] deals with OVX rats. In words: Ovariectomized rat model: serum osteocalcin by radioimmunoassay. Format: in vivo. Particulars: daily for 4 weeks. An excerpt: (§1) In women, estrogen deficiency during the menopause results in increased bone turnover leading to bone loss. Ovariectomy in rats produces estrogen deficiency and increased bone turnover leading to trabecular bone loss similar to that observed in post-menopausal women (Kalu, D. N., Bone and Mineral 1991;15:175; Frost, H. M., Jee W. S. S., Bone and Mineral 1992;18:227; Wronski, T. J., Yen, C-F, Cells Materials 1991 ;(suppl. 1):69). The OVX rat is thus an appropriate model to evaluate compounds for the prevention and treatment of post-menopausal osteoporosis. The ability of PPTN to inhibit estrogen deficiency bone loss was assessed in 5-month-old OVX rats, since ovariectomy causes significant bone loss in the lumbar vertebrae, proximal tibia, and distal femoral metaphyses (Ke, H. Z., et al., Endocrin 1995;136:2435; Chen, H. K., et al., J Bone Miner Res 1995;10:1256).
Five-month-old OVX female rats were treated with PPTN at oral doses of 0.733, 7.33, 73.3, and 733 μg/kg/day, or 17α-ethynyl estradiol (EE) at 30 μg/kg/day (10 rats per subgroup) daily for 4 weeks. […] The effects of PPTN on the following end points were determined: (a) serum osteocalcin, a biochemical marker of bone turnover, (b) bone mineral density of lumbar vertebrae and distal femoral metaphyses, (c) bone histomorphometry of fifth lumbar vertebral body and proximal tibial metaphyses. […]

Assay [2] has as its system OVX rats. In words: Ovariectomized rat model: lumbar vertebral BMD by dual-energy X-ray absorptiometry. It counts as in vivo. As to conditions: 4 weeks.
Source text: as §1
(§2) Five-month-old OVX female rats were treated with PPTN at oral doses of 0.733, 7.33, 73.3, and 733 μg/kg/day, or 17α-ethynyl estradiol (EE) at 30 μg/kg/day (10 rats per subgroup) daily for 4 weeks. The oral treatment began 1 day after surgery. Groups of vehicle-treated sham rats (n=10) and vehicle-treated OVX rats (n=10) served as controls. Calcein at 10 mg/kg was injected s.c. to all rats 12 and 2 days before necropsy as a fluorochrome bone marker to measure bone dynamic histomorphometric parameters. The effects of PPTN on the following end points were determined: (a) serum osteocalcin, a biochemical marker of bone turnover, (b) bone mineral density of lumbar vertebrae and distal femoral metaphyses, (c) bone histomorphometry of fifth lumbar vertebral body and proximal tibial metaphyses.
The first to the sixth lumbar vertebrae from each rat were removed during necropsy. These were then scanned ex vivo using dual-energy X-ray absorptiometry. The scan images were analyzed, and bone area, bone mineral content (BMC), and bone mineral density (BMD) of whole lumbar vertebrae (WLV), and LV1 through LV6 were determined. […] The changes in BMC were similar to those observed in BMD. […]

Assay [3] has as its system OVX rats. In words: Ovariectomized rat model: bone histomorphometry of fifth lumbar vertebral body. It counts as in vivo. As to conditions: 4 weeks; for OVX-induced increase in bone formation rate (BFR) / percent eroded surface (index of osteoclastic bone resorption) compared with sham controls: lumbar vertebra.
Source text: as §1, §2
In order to understand the cellular mechanism of bone-protective effects of PPTN at the tissue level, bone histomorphometric methods were used to determine the effects of PPTN on cancellous bone of the fifth lumbar vertebral body in OVX rats. Ovariectomy caused significant decreases in trabecular bone volume (trabecular bone area divided by marrow space area, expressed as percent) and trabecular number, and a significant increase in trabecular separation of the fifth lumbar vertebral body.

For assay [4], the system named is OVX rats. The assay can be described thus: Ovariectomized rat model: femoral BMD by dual-energy X-ray absorptiometry. Format: in vivo. As to conditions: 4 weeks.
Source text: as §1, §2
Using dual-energy X-ray absorptiometry, the right femur of each rat was scanned ex vivo. Bone mineral density (BMD) of the distal femoral metaphyses (second 0.5 cm from the distal end of femur) and the proximal femur (the first 0.5 cm from the proximal end of femur, which contains the femoral head, neck, and greater trochanter) was determined.

The test system of assay [5] is OVX rats. In words: Ovariectomized rat model: histomorphometry of proximal tibial metaphyses. As to conditions: 4 weeks. Format: in vivo.
Source text: as §1, §2
In order to determine the effect of PPTN on long bone metaphyses, histomorphometric analyses were performed on the proximal tibiae.

A further assay has as its system MDA-MB-231 cells. In words: Inhibition of in vitro human breast tumor cell growth (ER-negative line). Format: cell-based. Particulars: MDA-MB-231 (ER-negative), 6 days incubation, direct cell counts. How it is done:
The in vitro antiproliferative effects of (-)-cis-6-phenyl-5-[4-(2-pyrrolidin-1-yl-ethoxy)-phenyl]-5,6,7,8-tetrahydro-naphthalene-2-ol (PPTN) were tested using two types of human breast cancer cell lines: first, MCF-7 cells, which contain ER as well as progesterone receptors (PgR), and second, MDA-MB-231 cells, which lack ER and PgR, and enable the determination of an effect that is independent of the ER mechanism. The effect of PPTN on the growth of these different cell lines was determined by incubation of the cells with various compound concentrations for 6 days.
The antiproliferative effects were then determined by direct cell counts. PPTN inhibited the growth of the ER-positive cell line MCF-7.

The mark [6] stands for this setting: PPTN at doses ≧7.33 μg/kg/day oral.
[7] abbreviates: PPTN at 73.3 or 733 μg/kg/day oral.

Turning to `C#C[C@]1(O)CC[C@H]2[C@@H]3CCc4cc(O)ccc4[C@H]3CC[C@@]21C` [EE, 17α-ethynyl estradiol, reference compound], the “OVX-induced increase in serum osteocalcin concentration” value in the assay on OVX rats [1] (EE 30 μg/kg/day oral) is reported as “completely prevented”. Further, in the assay with OVX rats [2] (EE 30 μg/kg/day oral), the “OVX-induced decrease in lumbar vertebral BMD” value is on record as “completely prevented”. For the same compound, in the assay on OVX rats [3] (EE 30 μg/kg/day oral), the “OVX-induced changes in trabecular bone volume, trabecular number and trabecular separation of fifth lumbar vertebral body” value is on record as “completely prevented”; the “bone turnover rate, lumbar vertebra” value is listed as “did not differ from sham controls”; the “trabecular number of fifth lumbar vertebral body compared with sham controls” value is recorded as “significantly increased”; the “OVX-induced increase in bone formation rate (BFR)” value is given as “inhibited this increase”. Further, the “percent eroded surface (index of osteoclastic bone resorption) compared with sham controls” value with OVX rats [3] (EE 30 μg/kg/day oral) is listed as “significantly decreased”. For the same compound, in the assay with OVX rats [4] (EE 30 μg/kg/day oral), the “OVX-induced decrease in BMD of distal femoral metaphyses” value is on record as “prevented the decrease” and the “proximal femoral BMD” value was “had no effect”. Also, the “bone turnover rate in proximal tibial trabecular bone” value in the assay with OVX rats [5] (EE 30 μg/kg/day oral) is recorded as “did not differ from sham controls”. In addition, the “osteoclast number per millimeter of bone surface and percent osteoclast surface compared with both sham and OVX controls” value in the assay on OVX rats [5] (EE 30 μg/kg/day oral, proximal tibia) is on record as “significantly decreased”.
With `Oc1ccc2c(c1)CC[C@H](c1ccccc1)[C@@H]2c1ccc(OCCN2CCCC2)cc1` [PPTN, (-)-cis-6-phenyl-5-[4-(2-pyrrolidin-1-yl-ethoxy)-phenyl]-5,6,7,8-tetrahydro-naphthalene-2-ol], the “inhibition of cell proliferation” value in the assay with MDA-MB-231 cells was “did not inhibit cell proliferation”. The “OVX-induced increase in serum osteocalcin concentration” value with OVX rats [1] (setting [6]) is on record as “completely prevented”. In addition, the “lumbar vertebral BMD compared with both sham and OVX controls” value in the assay with OVX rats [2] (PPTN 73.3 μg/kg/day oral) is recorded as “increased significantly”. The “OVX-induced decrease in lumbar vertebral BMD” value in the assay with OVX rats [2] (PPTN at all dose levels (0.733, 7.33, 73.3, 733 μg/kg/day oral)) was “completely prevented”. Also, in the assay on OVX rats [3] (OVX rats, oral), the “ED50 in preserving lumbar vertebral cancellous bone mass and structure” value is “less than 0.733 μg/kg/day”. For the same compound, the “trabecular number of fifth lumbar vertebral body compared with sham controls” value in the assay on OVX rats [3] (setting [7]) was “significantly increased”. In addition, in the assay on OVX rats [3] (PPTN at all dose levels, oral), the “bone turnover rate, lumbar vertebra” value is given as “did not differ from sham controls”; the “OVX-induced increase in bone formation rate (BFR)” value was “inhibited this increase”; the “percent eroded surface (index of osteoclastic bone resorption) compared with sham controls” value is reported as “significantly decreased”. Besides, the “OVX-induced changes in trabecular bone volume, trabecular number and trabecular separation of fifth lumbar vertebral body” value in the assay with OVX rats [3] (all doses of PPTN (0.733-733 μg/kg/day oral)) was “completely prevented”. The “BMD of distal femoral metaphyses and proximal femur” value in the assay on OVX rats [4] (PPTN at 0.733 or 7.33 μg/kg/day oral) was “did not differ from OVX controls”. The “OVX-induced decreases in BMD of distal femoral metaphyses and proximal femur” value with OVX rats [4] (setting [7]) is “completely prevented the decreases”. In addition, the “proximal tibial trabecular bone volume” value with OVX rats [5] (PPTN at 0.733 μg/kg/day oral) is given as “no significant effect”. The “percent osteoclast surface compared with OVX controls” value with OVX rats [5] (PPTN at 0.733 μg/kg/day, proximal tibia) is recorded as “decreased significantly”. In addition, in the assay with OVX rats [5] (PPTN at 7.33, 73.3, or 733 μg/kg/day oral, proximal tibia), the “osteoclast number per millimeter of bone surface and percent osteoclast surface compared with both sham and OVX controls” value is listed as “significantly decreased”. Besides, the “bone turnover rate in proximal tibial trabecular bone” value with OVX rats [5] (PPTN at doses of 7.33 to 733 μg/kg/day oral) is on record as “did not differ from sham controls”. Moreover, the “proximal tibial trabecular bone volume compared with OVX controls” value with OVX rats [5] (setting [6]) is listed as “significantly greater”.

For the origin of these results see US20010056099A1, “Method of reducing morbidity and the risk of mortality” (priority 2000, published 2001).
